From patent US8389698B2, “Tanaproget derivatives, metabolites, and uses thereof” (Wyeth LLC, priority 2004, dated 2013)

Experiments:
[1] = Metabolite identification in liver microsomes; assay type: in vitro ADME; conditions: male and female rat, dog, and human liver microsomes
Protocol: (§1) The glucuronide of tanaproget was prepared in male rat liver microsomes, and the structure was identified as a S-glucuronide conjugate by liquid chromatography (LC)/mass spectrometry (MS) and nuclear magnetic resonance (NMR) spectroscopy. […] This S-glucuronide can also be synthetically prepared simultaneously with a N-glucuronide. The two synthetic glucuronides could be separated by HPLC and their structures were all characterized by LC/MS and NMR spectroscopy. In the following scheme, the NSP-989 terminology is used in the place of tanaproget.
Incubations (100 mL) were performed with tanaproget (40 μM), UDPGA (5 mM), magnesium chloride (10 mM), and male rat liver microsomes (1.5 mg/mL), in 0.1 M potassium phosphate buffer, pH 7.4 at 37° C. The samples were pre-incubated for 1 minute at 37° C., and the reactions were initiated by the addition of UDPGA. The sample was cooled using an ice bath to stop the reaction after 3 hours. Unreacted tanaproget was removed from the samples by two extractions with diethyl ether (200 mL×2).

[2] = test system: Glusulase (glucuronidase); test: Enzymatic hydrolysis of tanaproget glucuronide conjugate in pooled urine by Glusulase; assay type: in vitro ADME
Protocol: In order to confirm that that the tanaproget glucuronide derivative is a prodrug when delivered to patients, the ability of the glucuronide conjugate to be enzymatically cleaved by a glucuronidase which is native to the gastrointestinal tract in humans was used in the following assay.
Pooled urine samples (4-8 hr) from healthy women were hydrolyzed by Glusulase®. Aliquots (1 mL) of pooled urine were adjusted to pH 5 with 0.5 mL of 0.6 M sodium acetate buffer. The diluted urine was mixed with Glusulase® (9,000 units/mL, 100 μL) and incubated at 37° C. for 1 hr with gentle shaking. The reaction was stopped by the addition of 2 mL of acetone and the precipitate was removed by centrifugation. The supernatant was dried under nitrogen in a TurboVap™ (Caliper Life Sciences, Hopkinton, Mass.).

[3] = test system: alkaline phosphatase activity in T47D cells; test: Alkaline phosphatase activity in T47D cells; assay type: cell-based
Protocol: Tanaproget glucuronides are a prodrug of tanaproget, a first-in-class non-steroidal progesterone receptor agonist for use primarily in contraception. The effect of tanaproget glucuronides on alkaline phosphase activity in T47D cells is analyzed as follows.
Culture medium: DMEM:F12 (1:1) (GIBCO, BRL) supplemented with 5% (v/v) charcoal stripped fetal bovine serum (not heat-inactivated), 100 U/mL penicillin, 100 μg/mL streptomycin, and 2 mM GlutaMax (GIBCO, BRL).
Alkaline phosphatase assay buffer: I. 0.1M Tris-HCl, pH 9.8, containing 0.2% Triton X-100, 0.1M Tris-HCl, pH 9.8, containing 4 mM p-nitrophenyl phosphate (Sigma).
Frozen T47D cells are thawed in a 37° C. water bath and diluted to 280,000 cells/mL in culture medium. To each well in a 96-well plate (Falcon, Becton Dickinson Labware), 180 μl of diluted cell suspension is added.
Twenty μl of reference or test compounds diluted in the culture medium is then added to each well. The cells are incubated at 37° C. in a 5% CO2 humidified atmosphere for 24 hours. For high throughput screening, one concentration of each compound will be tested at 0.3 μg/mL. […]
For reference and test compounds, a dose response curve is generated for dose vs. the rate of enzyme reaction (slope). […] EC50 values are calculated from the retransformed values. […]

[4] = Drug related components in plasma; assay type: in vivo; conditions: rat, dog, and human plasma
Protocol: as §1

abundance as metabolite of tanaproget in liver microsomes [1]: major metabolite | EC50 ([3]; Homo sapiens, 24 hours treatment): 0.1 nM | abundance as drug related component in plasma [4]: major drug related component
Structure (SMILES): Cn1c(C#N)ccc1-c1ccc2c(c1)C(C)(C)OC(SC1OC(C(=O)O)C(O)C(O)C1O)=N2 [Tanaproget S-glucuronide, S-(β)-D-glucuronide of tanaproget]
conversion of glucuronide into tanaproget by Glusulase ([2]; pooled urine (4-8 hr) from healthy women, pH 5, Glusulase 9,000 units/mL, 37° C., 1 hr, HPLC and LC/MS): confirmed the conversion of glucuronide into parent drug tanaproget | conversion of glucuronide into tanaproget in control incubations ([2]; same conditions without Glusulase, or with Glusulase and 10 mM saccharolactone (β-glucuronidase inhibitor)): no conversion of glucuronide conjugate into tanaproget was observed | efficacy as compared to progesterone ([3]; alkaline phosphatase, relative to progesterone): 60%
